From patent US20260216294A1, “BETA 2-ADRENERGIC RECEPTOR AGONISTS FOR TREATMENT OR PREVENTION OF MUSCLE WASTING” (ATROGI AB, priority 2023, published 2026)

Assays:
L6-myotubes [1] = experiment: Glucose uptake in differentiated L6-myotubes (Biological Example 2); assay type: cell-based; conditions: for Emax at 10 µM: read-out: Biological example 2 (GU)
Protocol: (§1) Compounds described in publications referenced and incorporated herein were screened in accordance with the procedures outlined in Biological example 2 and Biological example 3.
Differentiated L6-myotubes were serum-starved overnight in medium containing 0.5% fatty-acid free BSA and stimulated with isoprenaline or the test compound, with a final concentration of 1×10^−5 M. After 1 h 40 min the cells were washed with warm glucose free medium or PBS twice and another portion of agonist was added to the glucose free medium. After 20 min the cells were exposed to 50 nM ^3H-2-deoxyglucose for 10 min before washed with ice cold glucose free medium or PBS three times and lysed with 0.2 M NaOH, 400 μL/well, for 1 h at 60° C. The cell lysate was mixed with 4 mL scintillation buffer (Emulsifier Safe, Perkin Elmer) and the radioactivity was detected in a […] (Tri-Carb 4810TR, Perkin Elmer).

L6-myotubes [2] = experiment: Measurement of intracellular cAMP levels in differentiated L6-myotubes (Biological Example 3); assay type: cell-based; conditions: for Emax at 10 µM: 0.25 h
Protocol: as §1
Differentiated L6-myotubes were serum-starved overnight and stimulated with isoprenaline or the test compound with a final concentration of 1×10^−5 M, for 15 min in stimulation buffer (HBSS supplemented with 1% BSA, 5 mM HEPES and 1 mM IBMX, pH 7.4). The medium was aspirated and 100 μL of 95% EtOH was added to each well of the 24-well plate and cells were kept at −20° C. overnight. The EtOH was allowed to evaporate and 500 μL of lysis buffer (1% BSA, 5 mM HEPES and 0.3% Tween-20, pH 7.4) was added to each well. The plate was kept at −80° C. for 30 min and then at −20° C. until the day of detection when the samples were thawed. Intracellular cAMP levels were detected using an alpha screen cAMP kit (6760635D from Perkin Elmer).

[3] = glucose uptake, compound at 10 μM relative to isoproterenol at 10 μM
[4] = intracellular cAMP, compound at 10 μM relative to isoproterenol at 10 μM
[5] = glucose uptake in differentiated L6-myotubes, compound at 10 μM, activity relative to isoproterenol at 10 μM
[6] = intracellular cAMP in differentiated L6-myotubes, compound at 10 μM, activity relative to isoproterenol at 10 μM

Row | SMILES | Emax at 10 µM (L6-myotubes [1]; [3]) [%] | Emax at 10 µM (L6-myotubes [2]; [4]) [%] | Emax at 10 µM (L6-myotubes [1]; [5]) [%] | Emax at 10 µM (L6-myotubes [2]; [6]) [%] | other results
1 | CC(C)(C)NC[C@H](O)c1cncc(F)c1 [Compound 99, (R)-2-(tert-butylamino)-1-(5-fluoro-3-pyridyl)-1-ethanol] | > 75 | 25 to 50 | – | – | –
2 | CC1(C)CCC[C@H]([C@@H](O)c2ccccc2F)N1 [Compound 176, (S)-[(R)-6,6-dimethyl-2-piperidyl](o-fluorophenyl)methanol] | > 75 | 25 to 50 | – | – | –
3 | CS(=O)(=O)Nc1ccc(CC23CCC([C@H](O)c4cccc(F)c4)(CC2)N3)cc1 [Compound 475, (R)-(m-fluorophenyl)(4-{[p-(mesylamino)phenyl]methyl}-7-azabicyclo[[2.2.1]]hept-1-yl)methanol] | – | – | 50 to 75 | < 25 | –
4 | CCC[C@H]1CCC[C@@H]([C@H](O)c2cccc(Cl)c2)N1 [Compound 123] | 25 to 50 | < 25 | – | – | –
5 | O[C@@H](CNC[C@H]1CC[C@H](OCc2ccccc2)CC1)c1cncc(F)c1 [Compound 273, (R)-1-(5-fluoro-3-pyridyl)-2-({[(1r,4R)-4-(benzyloxy)cyclohexyl]methyl}amino)-1-ethanol] | – | – | 25 to 50 | < 25 | –
6 | CC(C)(NC[C@H](O)c1cncc(F)c1)[C@H]1CC[C@H](O)CC1 [Compound 285, (R)-1-(5-fluoro-3-pyridyl)-2-{1-methyl-1-[(1r,4R)-4-hydroxycyclohexyl]ethylamino}-1-ethanol] | – | – | 50 to 75 | < 25 | –
7 | CS(=O)(=O)N(Cc1ccccc1)c1cccc(CC23CCC([C@@H](O)c4cccc(F)c4)(CC2)N3)c1 [Compound 512] | – | – | < 25 | < 25 | –
8 | CCC[C@H](C)NC[C@H](O)c1ccc(F)cc1 [Compound 53, (R)-2-[(S)-1-methylbutylamino]-1-(p-fluorophenyl)-1-ethanol] | 50 to 75 | < 25 | – | – | –
9 | O[C@@H](c1cccc(F)c1)C12CCC(CCc3cccnc3)(CC1)N2 [Compound 446, (R)-(m-fluorophenyl){4-[2-(3-pyridyl)ethyl]-7-azabicyclo[[2.2.1]]hept-1-yl}methanol] | – | – | – | – | Biological example 2 (GU) (L6-myotubes [1]; [5]): +++ (If a compound at 10 μM shows activity of more than 75% of that of isoproterenol at 10 μM, the activity is denoted with +++); Biological example 3 (CAMP) (L6-myotubes [2]; [6]): ++ (if it is between 75 and 50% it is denoted with ++)
10 | COc1ccc(C[C@@H]2CC[C@H]([C@@H](O)c3cncc(F)c3)N2)cc1 [Compound 377, (S)-{(2R,5S)-5-[(p-methoxyphenyl)methyl]-2-pyrrolidinyl}(5-fluoro-3-pyridyl)methanol] | – | – | > 75 | < 25 | –
11 | CS(=O)(=O)N[C@H]1CC[C@H](CNC[C@H](O)c2cncc(F)c2)CC1 [Compound 313] | – | – | 25 to 50 | < 25 | –
12 | CC(C)(C[C@H]1CC[C@H](O)CC1)NC[C@H](O)c1cncc(F)c1 [Compound 299, (R)-2-{1,1-dimethyl-2-[(1r,4R)-4-hydroxycyclohexyl]ethylamino}-1-(5-fluoro-3-pyridyl)-1-ethanol] | – | – | 50 to 75 | < 25 | –
13 | CC1(C)C[C@@H]([C@@H](O)c2cccc(Cl)c2)N1 [Compound 231] | – | – | 25 to 50 | < 25 | –
14 | CCCCNC[C@H](O)c1ccccc1F [Compound 79, (R)-2-(butylamino)-1-(o-fluorophenyl)-1-ethanol] | > 75 | < 25 | – | – | –
15 | CS(=O)(=O)N[C@H]1CC[C@@H](CNC[C@H](O)c2cccc(F)c2)CC1 [Compound 312, (R)-1-(m-fluorophenyl)-2-({[(1s,4S)-4-(mesylamino)cyclohexyl]methyl}amino)-1-ethanol] | – | – | 50 to 75 | < 25 | –
16 | COc1ccc(C[C@@H]2CC[C@H]([C@@H](O)c3cccc(F)c3)N2)cc1 [Compound 372, (S)-{(2R,5S)-5-[(p-methoxyphenyl)methyl]-2-pyrrolidinyl}(m-fluorophenyl)methanol] | – | – | > 75 | < 25 | –
17 | CC(C)(CC[C@H]1CC[C@@H](O)CC1)NC[C@H](O)c1cncc(F)c1 [Compound 296, (R)-2-{1,1-dimethyl-3-[(1s,4R)-4-hydroxycyclohexyl]propylamino}-1-(5-fluoro-3-pyridyl)-1-ethanol] | – | – | > 75 | < 25 | –

Row | SMILES | Emax at 10 µM (L6-myotubes [1]; [3]) [%] | Emax at 10 µM (L6-myotubes [2]; [4]) [%] | Emax at 10 µM (L6-myotubes [1]; [5]) [%] | Emax at 10 µM (L6-myotubes [2]; [6]) [%] | other results
18 | CN([C@H]1CC[C@@H](CC(C)(C)NC[C@H](O)c2cncc(F)c2)CC1)S(C)(=O)=O [Compound 520] | – | – | 50 to 75 | < 25 | –
19 | CS(=O)(=O)Nc1cccc(CC23CCC([C@@H](O)c4cccc(F)c4)(CC2)N3)c1 [Compound 515, (R)-(m-fluorophenyl)(4-{[m-(mesylamino)phenyl]methyl}-7-azabicyclo[[2.2.1]]hept-1-yl)methanol] | – | – | – | – | Biological example 2 (GU) (L6-myotubes [1]; [5]): ++ (if it is between 75 and 50% it is denoted with ++); Biological example 3 (CAMP) (L6-myotubes [2]; [6]): + (if it is between 50 and 25% it is denoted with +)
20 | Oc1ccc(C(O)CNCC2CC2)cc1 (centres unmarked) [Compound 3, p-{2-[(cyclopropylmethyl)amino]-1-hydroxyethyl}phenol] | 50 to 75 | < 25 | – | – | –
21 | CCCC1(CCC)CC[C@H]([C@@H](O)c2cccc(F)c2)N1 [Compound 158, (S)-[(R)-5,5-dipropyl-2-pyrrolidinyl](m-fluorophenyl)methanol] | < 25 | < 25 | – | – | –
22 | Oc1ccc(C(O)CNCCCC2CCCCC2)cc1 (centres unmarked) [Compound 21, 2-(3-cyclohexylpropylamino)-1-(p-hydroxyphenyl)-1-ethanol] | > 75 | < 25 | – | – | –
23 | CC(C)(C[C@H]1CC[C@@H](NC(=O)OC(C)(C)C)CC1)NC[C@H](O)c1cccc(C#N)n1 [Compound 414, (1R,4s)-4-{2-[(S)-2-(6-cyano-2-pyridyl)-2-hydroxyethylamino]-2-methylpropyl}cyclohexly 2-methyl-2-propanecarbamate] | – | – | 50 to 75 | < 25 | –
24 | O[C@@H](CNC[C@H]1CC[C@H](O)CC1)c1cncc(F)c1 [Compound 274, (R)-1-(5-fluoro-3-pyridyl)-2-({[(1r,4R)-4-hydroxycyclohexyl]methyl}amino)-1-ethanol] | – | – | < 25 | < 25 | –
25 | O[C@@H](CNCCC[C@H]1CC[C@H](O)CC1)c1cncc(F)c1 [Compound 305, (R)-1-(5-fluoro-3-pyridyl)-2-{3-[(1r,4S)-4-hydroxycyclohexyl]propylamino}-1-ethanol] | – | – | 25 to 50 | < 25 | –
26 | CC1(C)CC[C@H]([C@H](O)c2ccc(F)cc2)N1 [Compound 173] | 50 to 75 | < 25 | – | – | –
27 | O[C@@H](CNCC[C@H]1CC[C@@H](OCc2ccccc2)CC1)c1cccc(F)c1 [Compound 287, (R)-1-(m-fluorophenyl)-2-{2-[(1s,4S)-4-(benzyloxy)cyclohexyl]ethylamino}-1-ethanol] | – | – | 50 to 75 | < 25 | –
28 | CC12CC(C1)[C@@H]([C@H](O)c1cncc(F)c1)N2 [Compound 223, (R)-{(S)-1-methyl-2-azabicyclo[[2.1.1]]hex-3-yl}(5-fluoro-3-pyridyl)methanol] | – | – | 25 to 50 | < 25 | –
29 | CC(C)(C[C@H]1CC[C@@H](NS(C)(=O)=O)CC1)NC[C@H](O)c1cncc(F)c1 [Compound 468, (R)-2-{1,1-dimethyl-2-[(1s,4S)-4-(mesylamino)cyclohexyl]ethylamino}-1-(5-fluoro-3-pyridyl)-1-ethanol] | – | – | > 75 | < 25 | –
30 | CCCCNC[C@H](O)c1cccc(O)c1F [Compound 87, (R)-2-(butylamino)-1-(2-fluoro-3-hydroxyphenyl)-1-ethanol] | > 75 | 25 to 50 | – | – | –
31 | CC(C)(C)NC[C@H](O)c1cccc(C#N)n1 [Compound 387, 6-[(S)-2-(tert-butylamino)-1-hydroxyethyl]-2-pyridinecarbonitrile] | – | – | > 75 | 25 to 50 | –
32 | CCC[C@@H]1CC[C@H]([C@H](O)c2cncc(F)c2)N1 [Compound 161] | – | – | – | – | Biological example 2 (GU) (L6-myotubes [1]; [3]): + (if it is between 50 and 25% it is denoted with +); Biological example 3 (CAMP) (L6-myotubes [2]; [4]): − (if it less than 25% it is denoted with −)
33 | CCC[C@@H]1CCC[C@@H]([C@@H](O)c2cccc(Cl)c2)N1 [Compound 114] | 25 to 50 | < 25 | – | – | –
34 | CCC[C@@H]1CCC[C@H]([C@H](O)c2cccc(F)c2)N1 [Compound 59, (R)-[(2R,6R)-6-propyl-2-piperidyl](m-fluorophenyl)methanol] | 25 to 50 | < 25 | – | – | –
